From patent US6265577A, “Pyrazolopyridylpyridazinone derivatives and process for the preparation thereof” (Kyorin Pharmaceuticals Co., Ltd., priority 1996, dated 2001)
Converted amounts (≈) assume the structure as drawn.

Key:
Format in all cases: biochemical
[1] = biological target: T1, phosphodiesterase II from heart (Cavia porcellus, UniProt A0A286XUV5); experiment: Measurement of phosphodiesterase-inhibiting activity, heart, II; conditions: guinea pig heart; 1 μM cAMP or cGMP substrate, 60 minutes at 30° C., EIA
T1 construct: fractions were extracted from respiratory tract and heart of guinea pig; from tissue; host or cells: guinea pig heart
T1 sequence (A0A286XUV5 22-936): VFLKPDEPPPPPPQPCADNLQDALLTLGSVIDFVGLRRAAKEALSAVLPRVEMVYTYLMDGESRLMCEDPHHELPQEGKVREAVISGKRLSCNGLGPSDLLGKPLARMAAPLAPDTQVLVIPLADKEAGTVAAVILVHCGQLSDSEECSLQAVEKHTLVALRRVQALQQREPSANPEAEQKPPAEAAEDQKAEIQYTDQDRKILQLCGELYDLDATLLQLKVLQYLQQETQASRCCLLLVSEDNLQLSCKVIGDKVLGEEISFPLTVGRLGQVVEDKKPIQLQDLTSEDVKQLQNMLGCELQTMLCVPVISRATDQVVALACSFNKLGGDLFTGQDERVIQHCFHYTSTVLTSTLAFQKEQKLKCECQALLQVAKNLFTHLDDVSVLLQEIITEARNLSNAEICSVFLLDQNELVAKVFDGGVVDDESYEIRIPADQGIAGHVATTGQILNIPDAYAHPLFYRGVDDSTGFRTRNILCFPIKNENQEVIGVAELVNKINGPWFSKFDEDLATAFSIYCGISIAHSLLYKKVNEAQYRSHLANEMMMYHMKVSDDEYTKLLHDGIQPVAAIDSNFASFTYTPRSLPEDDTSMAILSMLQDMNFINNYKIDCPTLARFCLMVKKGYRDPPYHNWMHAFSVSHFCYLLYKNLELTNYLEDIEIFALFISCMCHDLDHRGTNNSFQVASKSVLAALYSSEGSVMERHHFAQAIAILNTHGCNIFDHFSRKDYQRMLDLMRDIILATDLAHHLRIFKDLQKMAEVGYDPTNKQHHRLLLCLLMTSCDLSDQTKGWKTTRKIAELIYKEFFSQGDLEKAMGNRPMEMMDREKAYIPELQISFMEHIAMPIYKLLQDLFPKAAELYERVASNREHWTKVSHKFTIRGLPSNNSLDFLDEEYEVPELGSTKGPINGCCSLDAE
Method: (§1) Measurement of phosphodiesterase-inhibiting activity
(§2) Phosphodiestorase-containing fractions were extracted from respiratory tract and heart of guinea pig according to the method of Nicholson et al (Br. J. Pharmacol., 97, 889-897 (1989)), and used as enzyme solutions. The measurement of phosphodiesterase-inhibiting activity was performed by quantitatively determining (Linden et al, J. Immunol. Methods., 151, 209-216 (1992)) the cyclic AMP (cAMP) or cyclic GMP (cGMP) that remains as a result of enzymic reaction (Thompson et al, Biochemistry, 10, 311-316 (1971)) through enzyme immunoassay (EIA).
(§3) This was performed according to the method of Thompson et al. The enzyme solution was placed in a test tube, and 1 μM of cAMP or cGMP was added as a substrate. After reacting for 60 minutes at 30° C., the test tube was dipped for 2 minutes into boiling bath to inactivate phosphodiesterase, thus stopping the reaction. The testing compound was added to the test tube simultaneously with substrate.
(§4) 2) Quantitative determination through EIA […]

[2] = biological target: T2, phosphodiesterase III from respiratory tract (Cavia porcellus, UniProt H0VIU9); experiment: Measurement of phosphodiesterase-inhibiting activity, respiratory tract, III; conditions: guinea pig respiratory tract; 1 μM cAMP or cGMP substrate, 60 minutes at 30° C., EIA
T2 construct: fractions were extracted from respiratory tract and heart of guinea pig; from tissue; host or cells: guinea pig respiratory tract
T2 sequence (H0VIU9 1-1132): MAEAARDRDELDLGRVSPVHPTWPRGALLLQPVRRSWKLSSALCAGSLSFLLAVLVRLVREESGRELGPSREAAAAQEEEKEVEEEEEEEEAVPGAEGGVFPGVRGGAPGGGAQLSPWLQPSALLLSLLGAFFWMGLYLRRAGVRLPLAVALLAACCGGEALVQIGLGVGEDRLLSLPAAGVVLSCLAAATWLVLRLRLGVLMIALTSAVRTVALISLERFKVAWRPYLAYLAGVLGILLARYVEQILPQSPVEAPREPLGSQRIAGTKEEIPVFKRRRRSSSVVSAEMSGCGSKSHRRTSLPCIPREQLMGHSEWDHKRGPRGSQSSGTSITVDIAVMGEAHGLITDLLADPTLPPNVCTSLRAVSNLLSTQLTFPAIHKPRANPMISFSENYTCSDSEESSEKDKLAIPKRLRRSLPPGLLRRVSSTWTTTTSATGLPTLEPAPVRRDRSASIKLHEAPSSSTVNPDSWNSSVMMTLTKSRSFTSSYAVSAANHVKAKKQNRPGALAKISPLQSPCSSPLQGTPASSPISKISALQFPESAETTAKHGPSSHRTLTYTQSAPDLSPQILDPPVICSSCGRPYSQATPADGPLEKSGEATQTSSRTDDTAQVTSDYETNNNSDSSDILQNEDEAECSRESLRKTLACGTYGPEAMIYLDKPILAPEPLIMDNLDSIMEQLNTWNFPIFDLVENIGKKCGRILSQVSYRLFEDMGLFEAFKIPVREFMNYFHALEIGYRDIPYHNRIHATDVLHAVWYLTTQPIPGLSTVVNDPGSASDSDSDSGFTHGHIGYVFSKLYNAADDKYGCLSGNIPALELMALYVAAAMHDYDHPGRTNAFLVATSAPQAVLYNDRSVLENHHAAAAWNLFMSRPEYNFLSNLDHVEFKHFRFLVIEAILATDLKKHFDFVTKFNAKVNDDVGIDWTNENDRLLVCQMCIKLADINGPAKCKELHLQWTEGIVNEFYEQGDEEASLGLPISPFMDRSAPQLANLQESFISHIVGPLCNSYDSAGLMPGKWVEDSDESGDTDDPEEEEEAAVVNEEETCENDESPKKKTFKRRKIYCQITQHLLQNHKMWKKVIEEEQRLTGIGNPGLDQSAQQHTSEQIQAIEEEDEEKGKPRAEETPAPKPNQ
Method: as §1, §2, §3, §4

[3] = biological target: phosphodiesterase I from heart; experiment: Measurement of phosphodiesterase-inhibiting activity, heart, I; conditions: guinea pig heart; 1 μM cAMP or cGMP substrate, 60 minutes at 30° C., EIA
Method: as §1, §2, §3, §4

[4] = biological target: T3, phosphodiesterase III from heart (Cavia porcellus, UniProt H0VIU9); experiment: Measurement of phosphodiesterase-inhibiting activity, heart, III; conditions: guinea pig heart; 1 μM cAMP or cGMP substrate, 60 minutes at 30° C., EIA
T3 construct: fractions were extracted from respiratory tract and heart of guinea pig; from tissue; host or cells: guinea pig heart
T3 sequence (H0VIU9 1-1132): T2 sequence (H0VIU9 1-1132)
Method: as §1, §2, §3, §4

[5] = biological target: phosphodiesterase IV from respiratory tract; experiment: Measurement of phosphodiesterase-inhibiting activity, respiratory tract, IV; conditions: guinea pig respiratory tract; 1 μM cAMP or cGMP substrate, 60 minutes at 30° C., EIA
Method: as §1, §2, §3, §4

[6] = biological target: T4, phosphodiesterase II from respiratory tract (Cavia porcellus, UniProt A0A286XUV5); experiment: Measurement of phosphodiesterase-inhibiting activity, respiratory tract, II; conditions: guinea pig respiratory tract; 1 μM cAMP or cGMP substrate, 60 minutes at 30° C., EIA
T4 construct: fractions were extracted from respiratory tract and heart of guinea pig; from tissue; host or cells: guinea pig respiratory tract
T4 sequence (A0A286XUV5 22-936): T1 sequence (A0A286XUV5 22-936)
Method: as §1, §2, §3, §4

[7] = biological target: T5, phosphodiesterase V from respiratory tract (Cavia porcellus, UniProt H0VD23); experiment: Measurement of phosphodiesterase-inhibiting activity, respiratory tract, V; conditions: guinea pig respiratory tract; 1 μM cAMP or cGMP substrate, 60 minutes at 30° C., EIA
T5 construct: fractions were extracted from respiratory tract and heart of guinea pig; from tissue; host or cells: guinea pig respiratory tract
Method: as §1, §2, §3, §4

IC50 [1]: > 111 µM
IC50 [2]: 14.8 µM
IC50 Heart I [3]: > 30 µg/mL
IC50 [4]: 18.5 µM
IC50 Respiratory tract IV [5]: 5 µg/mL (≈ 18.5 µM)
IC50 [6]: > 111 µM
IC50 [7]: 0.37 µM
SMILES: CC1CC(=O)NN=C1c1c(C(C)C)nn2ccccc12 (stereo not shown) [Example 36]
